Assay results: US5252749A, “Ethers of thienocyclopentanone oximes, their preparation and pharmaceutical compositions containing them” (Elf Sanofi, priority 1991, dated 1993)

Columns and labels:
[1] = system: 5HT3 receptors; conditions: rats, Bezold-Jarisch reflex; compounds studied in J. Pharm. Pharmacol. 40, 301-302 (1988); cited from earlier work
[2] = target: T1, 5HT1D receptors (Bos taurus, UniProt F1MGM3); test: Displacement of tritiated serotonin from 5HT1D receptors on membrane preparations of bovine caudate nuclei; conditions: bovine caudate nuclei membranes, in vitro, read-out: concentration which inhibits 50% of the binding of the tritiated compound (IC50)
T1 construct: membrane preparations of bovine caudate nuclei; from tissue; host or cells: bovine caudate nuclei, membrane preparation
T1 sequence (F1MGM3 1-403): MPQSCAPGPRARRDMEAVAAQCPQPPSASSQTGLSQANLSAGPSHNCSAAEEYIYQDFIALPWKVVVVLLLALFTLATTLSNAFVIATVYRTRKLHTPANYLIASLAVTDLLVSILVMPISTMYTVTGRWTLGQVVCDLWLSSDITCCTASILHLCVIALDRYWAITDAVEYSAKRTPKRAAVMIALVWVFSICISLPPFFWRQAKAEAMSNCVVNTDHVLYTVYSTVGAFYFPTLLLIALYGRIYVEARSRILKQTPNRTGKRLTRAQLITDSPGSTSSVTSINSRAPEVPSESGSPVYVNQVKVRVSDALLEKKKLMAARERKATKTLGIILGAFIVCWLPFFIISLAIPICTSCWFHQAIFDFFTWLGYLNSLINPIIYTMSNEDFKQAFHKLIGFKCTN

[3] = system: 5HT1D receptor; conditions: Headache 29, 420-422, July 1989; cited from earlier work
[4] = system: 5HT1A receptor; conditions: Headache 29, 420-422, July 1989; cited from earlier work
[5] = in man; cited from earlier work

IC50 [2] [nM]	Compound	dose which inhibits 50% of the serotonin activity (ID50) [1]	agonist activity at the 5HT1D receptor [3]	agonist activity at the 5HT1A receptor [4]	antimigraine activity [5]
	CN1[C@@H]2CC[C@H]1CC(OC(=O)c1c[nH]c3ccccc13)C2 (stereo partly shown) [ICS 205-930]	approximately 1 μg/kg			
	CCN(CC)CCNC(=O)c1cc(Cl)c(N)cc1OC [metoclopramide]	~0.4 mg/kg			
~100	CNS(=O)(=O)Cc1ccc2[nH]cc(CCN(C)C)c2c1 [sumatriptan]		powerful agonist of the 5HT1D receptor	weak agonist of the 5HT1A receptor	marked antimigraine activity in man
	COc1cc(N)c(Cl)cc1C(=O)NC1CN2CCC1CC2 (stereo not shown) [zacopride]	~0.00025 mg/kg			
